Test results as given in EPA's ToxValDB 9.5.
Where “and” joins values, the source holds several entries; their conditions need not be identical. Equal values may be shown once.

Columns and labels:
Rattus norvegicus [1] = details: oral
Rattus norvegicus [2] = details: M/F
Rattus norvegicus [3] = system: Rattus norvegicus
Rattus norvegicus [4] = system: Rattus norvegicus; remark: listed apart in the source
[5] = subchronic, gavage, M, Sprague-Dawley, Clinical Observation: Salivation + Hematology: NEUT increase + Histopathology: Forestomach-Erosion Forestomach-Cellular infiltration, …
[6] = short-term, duration: 28 days, gavage, M, Sprague-Dawley, Clinical Observation: Reddish urine Soft stool DiarrheaSpontaneous locomotion decrease, Incomplete eyelid opening + Functional Observational…
[7] = short-term, duration: 28 days, gavage, F, Wistar, Deaths + Clinical Observation: Thinly haired areas of skin Weakness Thin appearance Respiratory disorders Some resistance to dosing + Body …
[8] = short-term, duration: 28 days, gavage, M, Wistar, Deaths + Clinical Observation: Thinly haired areas of skin Weakness Thin appearance Respiratory disorders Some resistance to dosing + Body …
[9] = subchronic, gavage, M, Sprague-Dawley, Urinalysis: Round epithelial cell increase + Hematology: RBC decrease, HGB decrease, HCT decrease, RET increase, R + Blood Chemistry: a2-…
[10] = short-term, duration: 28 days, gavage, M, Sprague-Dawley, Clinical Observation: Salivation Dark green urinelocomotor activity decrease, Staining around nose and mouth + Functional Observational …
[11] = subchronic, gavage, M, Sprague-Dawley, Clinical Observation: Respiratory noise Irregular respiration Deep respiration R Soiled perigenital region R Oligo-stool R Hypothermia R + …
[12] = acute, oral, gavage, Sprague-Dawley

O=P([O-])(O)CN(CCN(CCN(CP(=O)(O)O)CP(=O)(O)O)CP(=O)(O)O)CP(=O)(O)O.[Na+]
NOAEL (Rattus norvegicus [1]; subchronic, duration: 90 days, diet, M/F, Wistar, Hematology: RBC increase, MCV decrease, MCH decrease, HGB decrease, MCHC decrease + Absolute Organ Weight: Liver decrease): 96 mg/kg-day

Clc1ccc(OCCOCc2ccc(COCCOc3ccc(Cl)cc3)cc2)cc1
NOEL (Rattus norvegicus [1]; short-term, duration: 28 days, gavage, M/F, Body Weight Changes: Body weight gain decrease + Food Consumption: decrease + Blood Chemistry: ALB increase, A/G increase + Organ Weight: …): 8 mg/kg-day

NC1=CC(=O)C(N=Nc2ccc(Nc3ccc(N=Nc4c(S(=O)(=O)[O-])cc5c(c4N)C(=O)C(N=Nc4ccccc4)C(S(=O)(=O)[O-])=C5)cc3S(=O)(=O)[O-])cc2)C=C1.[Na+].[Na+].[Na+] (stereo not given)
NOEL (Rattus norvegicus [1]; short-term, duration: 28 days, gavage, M/F, Hematology: MET-HGB increase, RET increase, RBC decrease, HGB decrease, MCHC decrease, MCV increase, PCV decrease, MCH increase, HEINZ …): < 50 mg/kg-day

CC(=O)Nc1cc(Nc2nc(Nc3ccc(N=Nc4cccc(S(=O)(=O)[O-])c4)c(NC(C)=O)c3)nc(N3CCOCC3)n2)ccc1N=Nc1cccc(S(=O)(=O)[O-])c1.[Na+].[Na+]
NOEL (Rattus norvegicus [1]; short-term, duration: 28 days, gavage, M/F, Urinalysis: Bil increase + Blood Chemistry: T-Bil increase, UA increase): 200 mg/kg-day

CC(C)(c1ccc(O)cc1)c1ccc(C(C)(c2ccc(O)cc2)c2ccc(O)cc2)cc1
NOEL (Rattus norvegicus [1]; short-term, duration: 28 days, gavage, M/F, Crj:CD, Hematology: Plt increase + Blood Chemistry: GPT increase, TG increase, Cho increase, TP decrease, LH decrease, , FSH decrease, Estradiol …): 300 mg/kg-day

CCCCCCCCOC(=O)CCc1cc(-n2nc3ccccc3n2)c(O)c(C(C)(C)C)c1
NOEL (Rattus norvegicus [1]; short-term, duration: 28 days, gavage, M/F, Body Weight Changes: Body weight gain decrease + Hematology: PT increase + Blood Chemistry: GOT increase, GPT increase, T-CHO increase, TG …): 2 mg/kg-day

CCN1CCc2c3n(c4ccccc24)C(C(=O)OC)=CCC31.Cl (stereo not given)
NOEL (Rattus norvegicus [1]; chronic, duration: 91 days, gavage, M/F, CD, Clinical Observation: Salivation Greenish urine + Urinalysis: Greenish, or Dark green urine Quarry placoid crystal Urinary cast Volume …): 50 mg/kg-day

CC1=C(C)C(=O)C(C(CCCCCC(=O)O)c2ccccc2)=C(C)C1=O (racemic)
NOAEL (Rattus norvegicus [1]; subchronic, duration: 13 weeks, gavage, M/F, Fischer 344, Body Weight Changes: decrease + Food Consumption: decrease + Hematology: RBC decrease, HCT decrease, HGB decrease, MCV increase, MCH …): 20 mg/kg-day

C[Si](O[Si](C)(C)C)O[Si](C)(C)C [1,1,1,3,5,5,5-Heptamethyltrisiloxane]
NOAEL (Rattus norvegicus [1]; subchronic, duration: 35 days, gavage, M, Wistar, Clinical Observation: Salivation / No description about sex and dosages Pushing the head through the bedding material / No description …): 50 mg/kg-day

CN1CCN(C)C1=O [1,3-Dimethyl-2-imidazolidinone]
NOEL (Rattus norvegicus [1]; subchronic, gavage, M, Sprague-Dawley, Body Weight Changes: Gain decrease(trend) + Blood Chemistry: TG increase, T-Cho increase(trend)TP decrease, R a1-glb decrease, R beta-glb …): 20 mg/kg-day

C1CCC2=NCCCN2CC1 [1,8-Diazabicyclo[5.4.0]undec-7-ene]
NOAEL (Rattus norvegicus [1]; [5]): 30 mg/kg-day
NOEL (Rattus norvegicus [1]; [5]): 10 mg/kg-day

Nc1c(Br)cc(Br)c2c1C(=O)c1ccccc1C2=O [1-Amino-2,4-dibromoanthraquinone]
NOAEL (Rattus norvegicus [1]; [6]): < 200 mg/kg-day
NOEL (Rattus norvegicus [1]; [6]): < 200 mg/kg-day
NOEL (Rattus norvegicus [1]; subchronic, duration: 13 weeks, diet, F, Fischer 344, Deaths + Clinical Observation: Lethargy Emaciation StaggeredHunched posture + Body Weight Changes: decrease + Food Consumption: decrease + …): < 170 mg/kg-day
NOEL (Rattus norvegicus [1]; subchronic, duration: 13 weeks, diet, M/F, Fischer 344, Deaths + Clinical Observation: Lethargy Emaciation StaggeredHunched posture + Body Weight Changes: decrease + Food Consumption: decrease + …): < 240 mg/kg-day

CC(O)CCl (stereo not given) [1-Chloro-2-propanol]
NOEL (Rattus norvegicus [1]; chronic, duration: 14 weeks, water, M/F, Fischer 344, Body Weight Changes: decrease + Water Consumption: decrease + Urinalysis: Urine volume decrease, Specific gravity increase, Total protein …): < 7.36 mg/kg-day

CCCCCCCCCCCCCCCCO [1-Hexadecanol]
NOAEL (Rattus norvegicus [1]; [7]): 300 mg/kg-day
NOEL (Rattus norvegicus [1]; [7]): 300 mg/kg-day
NOAEL (Rattus norvegicus [1]; [8]): 300 mg/kg-day
NOEL (Rattus norvegicus [1]; [8]): 100 mg/kg-day
NOAEL (Rattus norvegicus [1]; short-term, duration: 28 days, gavage, Sprague-Dawley): 1000 mg/kg-day
NOAEL (Rattus norvegicus [1]; subchronic, duration: 13 weeks, diet, F, Crl, Body Weight Changes: decrease2064 + Food Consumption: decrease2064 + Absolute Organ Weight: Brain2064 Heart LiverSpleen Gonad + Relative …): 875 mg/kg-day
NOAEL (Rattus norvegicus [1]; subchronic, duration: 13 weeks, diet, M, Crl, Body Weight Changes: decrease2064 + Food Consumption: decrease2064 + Absolute Organ Weight: Brain2064 Heart LiverSpleen Gonad + Relative …): 723 mg/kg-day

C=CC/C=C/C/C=C/C/C=C/C [1-Propene, tetramer]
NOAEL (Rattus norvegicus [1]; [9]): 40 mg/kg-day
NOEL (Rattus norvegicus [1]; [9]): < 40 mg/kg-day

C=CCCCCCCCCCCCC [1-Tetradecene]
NOAEL (Rattus norvegicus [1]; subchronic, gavage, M, Sprague-Dawley, Absolute Organ Weight: Liver increase + Relative Organ Weight: Liver increase + Histopathology: Liver-Hepatocyte cytoplasmic vacuolation): 100 mg/kg-day

Brc1ccc(Oc2cc(Br)c(Br)cc2Br)c(Br)c1 [2,2',4,4',5-Pentabromodiphenyl ether]
LOEL (Rattus norvegicus [2]; developmental, injection, intraperitoneal, Wistar, generation: F1, F1: Y maze): 30 mg/kg-day
LOEL (Rattus norvegicus [2]; reproduction developmental, oral, gavage, Crl:CD(SD), generation: P0, P0: Morris water maze (latency, significant trial)): 2 mg/kg-day
LOAEL (Rattus norvegicus [3]; developmental, duration: 1 days, oral, gavage, M/F, Wistar, developmental): 0.06 mg/kg-day

Cc1cc(C)c(C)c(O)c1 [2,3,5-Trimethylphenol]
NOEL (Rattus norvegicus [1]; subchronic, gavage, M, Sprague-Dawley, Clinical Observation: Soiled perigenitalia of urine LethargyAtaxia gait(transient after administration) + Body Weight Changes: decrease(…): 100 mg/kg-day

Cl.Cl.Nc1ccc(O)c(N)c1 [2,4-Diaminophenol dihydrochloride]
NOAEL (Rattus norvegicus [1]; [10]): 50 mg/kg-day
NOEL (Rattus norvegicus [1]; [10]): < 50 mg/kg-day
NOEL (Rattus norvegicus [1]; subchronic, duration: 13 weeks, gavage, M/F, Fischer 344, Deaths + Body Weight Changes: decrease>50 + Absolute Organ Weight: Liver increase, Thymus decrease + Relative Organ Weight: Right kidney …): < 12 mg/kg-day

Cc1ccc(S(=O)(=O)O)c(C)c1 [2,4-Dimethylbenzenesulfonic acid]
LOEL (Rattus norvegicus [1]; [11]): 500 mg/kg-day
NOEL (Rattus norvegicus [1]; [11]): 100 mg/kg-day

CC(C)=CC=C(C)C [2,5-Dimethyl-2,4-hexadiene]
NOEL (Rattus norvegicus [1]; subchronic, gavage, M, Sprague-Dawley, Clinical Observation: Soiled peri-genital + Body Weight Changes: decrease + Food Consumption: decrease(day1-8) + Hematology: WBC increase, …): < 100 mg/kg-day

C#CC(C)(C)O [2-Methyl-3-butyn-2-ol]
NOAEL (Rattus norvegicus [1]; short-term, duration: 28 days, gavage, M/F, BOB:WISW, Deaths + Clinical Observation: Sedation Narcosis Hypothermia + Body Weight Changes: decrease + Food Consumption: decrease + Hematology: WBC …): 50 mg/kg-day

Sc1ccc2ccccc2c1 [2-Naphthalenethiol]
NOEL (Rattus norvegicus [1]; short-term, duration: 28 days, gavage, M/F, Sprague-Dawley, Functional Observational Battery: Landing foot splay decrease + Food Consumption: decrease + Water Consumption: increase + Urinalysis: …): 8 mg/kg-day

Cc1cccc(C(C)(C)C)c1O [2-tert-Butyl-6-methylphenol]
NOEL (Rattus norvegicus [1]; subchronic, gavage, M, Sprague-Dawley, Hematology: Ret increase, PT increase, APTT increase + Blood Chemistry: GOT increase, GPT increasegamma-GTP increase, Cho increase + …): 8 mg/kg-day

BrC(Br)c1ccccc1OCC1CO1 (stereo not given) [2-{[2-(Dibromomethyl)phenoxy]methyl}oxirane]
NOEL (Rattus norvegicus [1]; subchronic, gavage, M, Sprague-Dawley, Clinical Observation: Salivation (transient) + Absolute Organ Weight: Kidney increase + Relative Organ Weight: Kidney increase + …): 8 mg/kg-day

Clc1ccc(N=Nc2ccc(Cl)c(Cl)c2)cc1Cl [3,3',4,4'-Tetrachloroazobenzene]
NOEL (Rattus norvegicus [1]; subchronic, gavage, M/F, Fischer 344, Body Weight Changes: decrease + Hematology: Ret increase Hct decrease, Hgb decrease, RBC decrease, Plt decrease, WBC decrease, Seg decrease…): < 0.1 mg/kg-day

[O-][N+](=Nc1ccc(Cl)c(Cl)c1)c1ccc(Cl)c(Cl)c1 [3,3',4,4'-Tetrachloroazoxybenzene]
NOEL (Rattus norvegicus [1]; subchronic, gavage, M/F, Fischer 344, Deaths + Body Weight Changes: decrease af>>>10 + Hematology: Plt decrease Hct decrease, Hgb decrease, RBC decrease Ret increase, WBC …): < 0.1 mg/kg-day

COCC(CCC(C)C)(COC)C(C)C [3,3-Bis(methoxymethyl)-2,6-dimethylheptane]
NOEL (Rattus norvegicus [1]; short-term, duration: 28 days, gavage, M/F, Clinical Observation: Salivation + Blood Chemistry: BIL increase, CL decrease + Absolute Organ Weight: Liver increase + Relative Organ …): 8 mg/kg-day

CC(O[Si](C)(C)C(C)(C)C)C1CNC1=O (stereo not given) [3-(1-{[tert-Butyl(dimethyl)silyl]oxy}ethyl)azetidin-2-one]
NOEL (Rattus norvegicus [1]; short-term, duration: 28 days, gavage, M/F, Clinical Observation: Salivation + Blood Chemistry: TP increase, T-CHO increase, TG increase, Glu decrease, Ca increase + Organ Weight: …): 8 mg/kg-day

Nc1cc(OCCOc2ccccc2)n[nH]1 [3-(2-Phenoxyethoxy)-1H-pyrazol-5-amine]
NOEL (Rattus norvegicus [1]; short-term, duration: 28 days, gavage, M/F, Deaths + Clinical Observation: Salivation Locomotor activity decrease, Sedation Urinary incontinence + Body Weight Changes: Body weight …): 40 mg/kg-day

[Cd] [Cadmium]
LOAEL (Rattus norvegicus [3]; short-term, duration: 2 weeks, inhalation, M/F, Fischer 344, respiratory): 0.088 mg/m3

CCN(CC)C(=O)c1cccc(C)c1 [DEET]
NOAEL (Rattus norvegicus [3]; developmental, duration: 364 days, oral, diet, M/F, Sprague-Dawley, developmental): 100 mg/kg-day

O=CCCCC=O [Glutaraldehyde]
NOAEL (Rattus norvegicus [3]; acute, duration: 1 days, inhalation, M/F, Fischer 344, respiratory): 0.512 mg/m3
NOAEL (Rattus norvegicus [3]; chronic, duration: 2 years, oral, drinking water, M/F, Fischer 344, gastrointestinal): 4 mg/kg-day

O.O.O=c1nc([O-])n(Cl)c(=O)n1Cl.[Na+] [Sodium dichloroisocyanurate dihydrate]
LD50 (Rattus norvegicus [4]; acute, dermal, Sprague-Dawley): > 5000 mg/kg
LD50 (Rattus norvegicus [4]; [12]): 1820 mg/kg

NNC(=S)NN [Thiocarbazide]
LD50 (Rattus norvegicus [4]; acute, dermal, Wistar): > 500 mg/kg
LC50 (Rattus norvegicus [4]; acute, inhalation, Wistar): 50 mg/m3 and > 75.5 mg/m3

[Cl][Ti]([Cl])([Cl])[Cl] [Titanium tetrachloride]
LOAEL (Rattus norvegicus [3]; chronic, duration: 104 weeks, inhalation, M/F, Crl:CD(SD), respiratory): 0.1 mg/m3
LOAEL (Rattus norvegicus [3]; short-term, duration: 4 weeks, inhalation, M, Crl:CD(SD), respiratory): 5 mg/m3

c1ccc(B(c2ccccc2)c2ccccc2)cc1 [Triphenylborane]
LD50 (Rattus norvegicus [4]; [12]): 196 mg/kg

ClCOCCl [bis(Chloromethyl) ether]
NOAEL (Rattus norvegicus [3]; chronic, duration: 6 months, inhalation, M, Sprague-Dawley, respiratory): 0.47 mg/m3

c1ccc(-c2ccccc2-c2ccccc2)cc1 [o-Terphenyl]
LOAEL (% diet) (Rattus norvegicus [4]; short-term, duration: 14 days, oral, diet, Wistar): 0.2
NOAEL (Rattus norvegicus [4]; subchronic, duration: 30 days, oral, diet, Sprague-Dawley): 100 mg/kg-day
